Key:
[1] = tested on: middle cerebral artery occlusion using an autologous blood clot; test: In vivo thrombolysis/reperfusion after embolic middle cerebral artery occlusion using an autologous blood clot; parameters: species or system rat
Protocol: In vivo experiments (FIG. 3) were performed in Male adult Sprague-Dawley rats (290±40 g). The animals had free access to food and water in an animal room at constant temperature and humidity. Rats monitored for their physiological functions were anesthesized, and subjected to cerebral ischemia by occlusion of the middle cerebral artery using an autologus blood clot obtained from whole blood withdrawn from the rat 24 h prior surgery, allowed to clot at 37° C. for 2 h, and then and stored at 4° C. for 22 h.
Embolic occlusion of the middle cerebral artery was induced using an autologous blood clot. Briefly, a blood clot of 4 cm long was injected with a volume of […] of saline into the middle cerebral artery. Forty-five minutes after occlusion of the middle cerebral artery, the rats were given t-PA intravenously (0.9 mg/kg; 10% bolus, 90% perfusion during 45 minutes) in order to induce thrombolysis. Five minutes before the bolus injection and all along the perfusion period with t-PA, the rats were treated with medical air (controls) or xenon. Then, the catheter was removed, and all the incisions closed. After the experiment, the rats were allowed moving freely in their home cage with free access to food and water.
(§1) The effects of oxygen on the catalytic activity and thrombolytic properties of t-PA were also evaluated in vitro and in vivo according to the methods described above.

t-PA-induced clot lysis = test: In vitro t-PA-induced clot lysis of rat blood clots; format: biochemical; conditions: for effect on t-PA-induced clot lysis: t-PA 0.008 mg/mL
Protocol: In vitro experiments (FIG. 2) were performed using Male adult Sprague-Dawley rats (500±50 g). The rats were killed by decapitation. A volume of 500 μL of rat blood was transferred in different pre-weighed sterile Eppenforf™ tubes of 1.5 mL volume and incubated at 37° C. for 15 hours.
After clot formation, serum was completely removed, aspired out without disturbing the clot formed, and each tube was again weighed to determine the clot weight (clot weight=weight of tube containing clot−weight of tube alone). Each tube containing clot was properly labeled and filled with 1 mL of a saline solution containing 0.008 mg/mL of t-PA, saturated beforehand with medical air (control), nitrous oxide, xenon, argon or a mixture of nitrous oxide and argon. Some tubes were filled with saline alone saturated with medical air to serve as a negative control. All tubes were then incubated at 37° C. for 1 h 30 min. After incubation, the fluid obtained was removed and tubes were again weighed to observe the difference in weight after clot disruption. Difference obtained in weight taken before and after clot lysis was expressed as a percentage of clot lysis.
as §1

human recombinant t-PA = human recombinant t-PA (Homo sapiens, UniProt P00750); test: Catalytic activity of t-PA (initial rate method, spectrophotometer); format: biochemical
Chain of human recombinant t-PA (P00750 36-562): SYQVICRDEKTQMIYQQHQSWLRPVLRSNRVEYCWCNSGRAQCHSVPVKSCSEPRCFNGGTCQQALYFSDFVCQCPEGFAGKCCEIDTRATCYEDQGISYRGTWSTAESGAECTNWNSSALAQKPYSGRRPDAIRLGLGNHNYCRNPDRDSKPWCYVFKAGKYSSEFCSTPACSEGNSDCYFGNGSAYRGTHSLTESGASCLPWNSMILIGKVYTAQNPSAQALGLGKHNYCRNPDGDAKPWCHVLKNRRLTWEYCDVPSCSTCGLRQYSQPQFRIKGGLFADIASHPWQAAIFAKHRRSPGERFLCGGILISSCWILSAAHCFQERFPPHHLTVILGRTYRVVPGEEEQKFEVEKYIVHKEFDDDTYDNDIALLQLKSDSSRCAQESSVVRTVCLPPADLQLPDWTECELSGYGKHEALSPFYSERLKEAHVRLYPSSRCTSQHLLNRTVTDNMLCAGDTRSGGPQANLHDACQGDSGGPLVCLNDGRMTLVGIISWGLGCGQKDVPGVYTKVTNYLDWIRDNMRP
Protocol: All experiments were performed as follows: Fifty (50) μL of human recombinant t-PA was incubated with 50 μL of its substrate: methylsulfonyl-D-phenyl-glycil-arginine-7-amino-4-methylcoumarin acetate. For plasmin, twenty five (25) μL of human recombinant plasmin was incubated with 25 μL of its substrate: H-D-norleucyl-hexahydrotyrosol-lysine-para-nitroanilide diacetate. The kinetics of the catalytic activity of t-PA or plasmin was immediately measured using a spectrophotometer, and then estimated using the initial rate method. Solutions of t-PA or plasmin and their substrates were saturated with air (control), or with nitrous oxide, argon, xenon, or helium at concentrations of 15 vol % to 75 vol %, the remainder being oxygen at 25 vol %, completed with nitrogen when necessary.
For all gas mixtures in FIG. 1, the remainder is 25 vol % oxygen completed with nitrogen if necessary.
as §1

[2] = tested on: NMDA-induced neuronal death; test: NMDA-induced neuronal death after intracerebral injection, with or without t-PA; format: in vivo, rat
Protocol: Experiments were conducted in Male adult Sprague-Dawley rats. The rats were given, under short halothane-oxygen anesthesia of 10 min duration, an intracerebral injection of 50 nmol NMDA, alone or in combination with 3 mg t-PA, in […] saline solution.
One hour later, the rats were treated for a 3 h period in an environmental chamber saturated with nitrous oxide at 50 vol % with the remainder being oxygen at 25 vol % completed with nitrogen.
Forty-eight (48) hours after NMDA injection, rats were killed by decapitation under halothane-oxygen anesthesia. The brain was rapidly removed, frozen in isopentane, placed at −80° C. Coronal brain sections (20 μm) were then cryostat-cut, mounted on gelatinized slides, and stained with thionin. Brain sections colored with thionin were then digitized on a PC computer, and analyzed with an image analyzer (ImageJ® software, Scion corp., USA) by two blinded scientists. Values were averaged; value differences were no more than 10% (mean: 0.5±1%). The lesion areas were delineated by the pallor of histological staining in the necrotic tissue compared with the surrounding healthy tissue. The infarction volume was calculated by integration over the whole brain of the infarcted surfaces, using the sterotaxic atlas for the rat brain of Paxinos and Watson (Academic Press, 1998).

[3] = solutions saturated with gas at 15 vol % to 75 vol %, remainder 25 vol % oxygen completed with nitrogen, vs air control
[4] = gas at 50 vol %, 37° C., 1 h 30 min

Molecule: O=O [Oxygen, oxygen]
- effect on in vivo thrombolytic action of t-PA ([1]; oxygen at 100 vol %): facilitates
- effect on in vitro thrombolytic action of t-PA (t-PA-induced clot lysis; oxygen at 100 vol %): facilitates
- effect on the catalytic activity of t-PA (human recombinant t-PA; oxygen at 100 vol %): increases

Molecule: [Ar] [argon]
- effect on t-PA-induced clot lysis (t-PA-induced clot lysis; gas at 30 vol %, 37° C., 1 h 30 min): reduce
- effect on the catalytic activity of t-PA (human recombinant t-PA; [3]): reduced

Molecule: [He] [helium]
- effect on t-PA-induced clot lysis (t-PA-induced clot lysis; gas at 75 vol %, 37° C., 1 h 30 min): reduce
- effect on the catalytic activity of t-PA (human recombinant t-PA; [3]): reduced

Molecule: [N-]=[N+]=O [nitrous oxide]
- effect on t-PA-induced clot lysis (t-PA-induced clot lysis; [4]): reduce
- effect on the catalytic activity of t-PA (human recombinant t-PA; [3]): reduced
- reduction of neuronal death induced by co-administration of t-PA and NMDA ([2]; nitrous oxide 50 vol % for 3 h, 1 h after 50 nmol NMDA + t-PA intracerebral, infarction volume at 48 h): 45%
- reduction of neuronal death produced by NMDA ([2]; nitrous oxide 50 vol % for 3 h, 1 h after 50 nmol NMDA intracerebral, infarction volume at 48 h): 22%
- reduction of the proteolytic action of t-PA responsible for the enhancement of neuronal death ([2]; nitrous oxide 50 vol %, difference 45%−22%): approximately 23%

Molecule: [Xe] [xenon]
- reperfusion rate versus control rats treated with t-PA and medical air ([1]; xenon at 75 vol % from 5 min before bolus and during t-PA perfusion (0.9 mg/kg i.v.)): lower reperfusion rate
- effect on t-PA-induced clot lysis (t-PA-induced clot lysis; [4]): reduce
- effect on the catalytic activity of t-PA (human recombinant t-PA; [3]): reduced

Molecule: t-PA: human recombinant tissue-type plasminogen activator, a thrombolytic serine protease
- reperfusion ([1]; t-PA 0.9 mg/kg intravenously 45 min after occlusion, vs rats not treated with t-PA): exhibit reperfusion
- percentage of clot lysis (t-PA-induced clot lysis; t-PA 0.008 mg/mL in saline saturated with medical air (control), 37° C., 1 h 30 min): around 23%
- effect on NMDA-induced neuronal death ([2]; t-PA co-administered with 50 nmol NMDA intracerebrally): increases
